Results as given in PMC10385824, “Antiproliferative and Tubulin-Destabilising Effects of 3-(Prop-1-en-2-yl)azetidin-2-Ones and Related Compounds in MCF-7 and MDA-MB-231 Breast Cancer Cells” (Pharmaceuticals, 2023).
Where two headings read alike, the source gives them in different places.

What was measured:
DU-145 = experiment: NCI-60 SRB screen, prostate cancer; assay type: cell-based, human; conditions: Homo sapiens; DU-145; five dose 0.01–100 µM, 48 h; read-out: GI50
NCI-H226 = experiment: NCI-60 SRB screen, non-small cell lung cancer; assay type: cell-based; conditions: Homo sapiens; NCI-H226; five dose 0.01–100 µM, 48 h; read-out: GI50
EKVX = experiment: NCI-60 SRB screen, non-small cell lung cancer; assay type: cell-based, human; conditions: Homo sapiens, five dose 0.01–100 µM, 48 h, read-out: GI50
SNB-75 = experiment: NCI-60 SRB screen, CNS cancer; assay type: cell-based, human; conditions: Homo sapiens; SNB-75; five dose 0.01–100 µM, 48 h; read-out: GI50
HCT-15 = experiment: NCI-60 SRB screen, colon cancer; assay type: cell-based, human; conditions: Homo sapiens; HCT-15; five dose 0.01–100 µM, 48 h; read-out: GI50
HOP-92 = experiment: NCI-60 SRB screen, non-small cell lung cancer; assay type: cell-based, human; conditions: Homo sapiens; HOP-92; five dose 0.01–100 µM, 48 h; read-out: GI50
NCI-H460 = experiment: NCI-60 SRB screen, non-small cell lung cancer; assay type: cell-based, human; conditions: Homo sapiens; NCI-H460; five dose 0.01–100 µM, 48 h; read-out: GI50
MDA-MB-435 = experiment: NCI-60 SRB screen, melanoma; assay type: cell-based, human; conditions: Homo sapiens; MDA-MB-435; five dose 0.01–100 µM, 48 h; read-out: GI50
[1] = test system: NCI 60 human cancer cell line panel; experiment: NCI 60 cell line screen (SRB), panel values; conditions: for CC50: read-out: Mean LC50; for IC (TGI (total growth inhibition)): read-out: Mean TGI
A549/ATCC = experiment: NCI-60 SRB screen, non-small cell lung cancer; assay type: cell-based, human; conditions: Homo sapiens; A549/ATCC; five dose 0.01–100 µM, 48 h; read-out: GI50
MDA-MB-468 = experiment: NCI-60 SRB screen, breast cancer; assay type: cell-based, human; conditions: Homo sapiens; MDA-MB-468; five dose 0.01–100 µM, 48 h; read-out: GI50
M14 = experiment: NCI-60 SRB screen, melanoma; assay type: cell-based, human; conditions: Homo sapiens; M14; five dose 0.01–100 µM, 48 h; read-out: GI50
MDA-MB-231/ATCC = experiment: NCI-60 SRB screen, breast cancer; assay type: cell-based, human; conditions: Homo sapiens, 48 h; for GI50: MDA-MB-231/ATCC, five dose 0.01–100 µM, read-out: GI50
KM12 = experiment: NCI-60 SRB screen, colon cancer; assay type: cell-based, human; conditions: Homo sapiens; KM12; five dose 0.01–100 µM, 48 h; read-out: GI50
OVCAR-8 = experiment: NCI-60 SRB screen, ovarian cancer; assay type: cell-based, human; conditions: Homo sapiens; OVCAR-8; five dose 0.01–100 µM, 48 h; read-out: GI50
MCF-7 = experiment: cells; conditions: Homo sapiens, MCF7, 48 h
ACHN = experiment: NCI-60 SRB screen, renal cancer; assay type: cell-based, human; conditions: Homo sapiens, five dose 0.01–100 µM, 48 h, read-out: GI50
K-562 = experiment: NCI-60 SRB screen, leukemia; assay type: cell-based, human; conditions: Homo sapiens, K562, 48 h; read-out: GI50
SK-MEL-2 = experiment: NCI-60 SRB screen, melanoma; assay type: cell-based, human; conditions: Homo sapiens; SK-MEL-2; five dose 0.01–100 µM, 48 h; read-out: GI50
MOLT-4 = experiment: NCI-60 SRB screen, leukemia; assay type: cell-based, human; conditions: Homo sapiens; MOLT-4; five dose 0.01–100 µM, 48 h; read-out: GI50
NCI-H332M = experiment: NCI-60 SRB screen, non-small cell lung cancer; assay type: cell-based; conditions: Homo sapiens, five dose 0.01–100 µM, 48 h, read-out: GI50
UO-31 = experiment: NCI-60 SRB screen, renal cancer; assay type: cell-based, human; conditions: Homo sapiens; UO-31; five dose 0.01–100 µM, 48 h; read-out: GI50
SW-620 = experiment: NCI-60 SRB screen, colon cancer; assay type: cell-based, human; conditions: Homo sapiens; SW-620; five dose 0.01–100 µM, 48 h; read-out: GI50
LOX IMVI = experiment: NCI-60 SRB screen, melanoma; assay type: cell-based, human; conditions: Homo sapiens, five dose 0.01–100 µM, 48 h, read-out: GI50
NCI/ADR-RES = experiment: NCI-60 SRB screen, ovarian cancer; assay type: cell-based, human; conditions: Homo sapiens, five dose 0.01–100 µM, 48 h, read-out: GI50
SK-MEL-28 = experiment: NCI-60 SRB screen, melanoma; assay type: cell-based, human; conditions: Homo sapiens; SK-MEL-28; five dose 0.01–100 µM, 48 h; read-out: GI50
NCI-H552 = experiment: NCI-60 SRB screen, non-small cell lung cancer; assay type: cell-based, human; conditions: Homo sapiens; NCI-H552; five dose 0.01–100 µM, 48 h; read-out: GI50
OVCAR-4 = experiment: NCI-60 SRB screen, ovarian cancer; assay type: cell-based, human; conditions: Homo sapiens; OVCAR-4; five dose 0.01–100 µM, 48 h; read-out: GI50
SN12C = experiment: NCI-60 SRB screen, renal cancer; assay type: cell-based, human; conditions: Homo sapiens, five dose 0.01–100 µM, 48 h, read-out: GI50
SF295 = experiment: NCI-60 SRB screen, CNS cancer; assay type: cell-based, human; conditions: Homo sapiens, SF-295; SF295; five dose 0.01–100 µM, 48 h; read-out: GI50
[2] = test system: MDA-MB-231 human breast cancer cells; experiment: Alamar Blue cell viability (antiproliferative) assay; assay type: cell-based; conditions: read-out: IC50
MALME-3M = experiment: NCI-60 SRB screen, melanoma; assay type: cell-based, human; conditions: Homo sapiens; MALME-3M; five dose 0.01–100 µM, 48 h; read-out: GI50
[3] = Homo sapiens, 60 cell, read-out: Mean GI50, mean over all NCI 60 cell lines
[4] = read-out: Mean GI50, mean over all NCI 60 cell lines

C=C(C)C1C(=O)N(c2cc(OC)c(OC)c(OC)c2)C1c1ccc(OC)c(N)c1 (stereo not drawn) [9s, 4-(3-Amino-4-methoxyphenyl)-1-(3,4,5-trimethoxyphenyl)-3-(prop-1-en-2-yl)azetidin-2-one]
GI50 (DU-145): 23.6 nM
GI50 (NCI-H226): 43.5 nM
GI50 (EKVX): 587 nM
GI50 (SNB-75): 60.1 nM
GI50 (HCT-15): 41.6 nM
GI50 (HOP-92): 43.7 nM
GI50 (NCI-H460): 33.2 nM
GI50 (MDA-MB-435): 26 nM
GI50 [1, 3]: < 91.2 nM
CC50 ([1]; Homo sapiens, 60 cell): 75900 nM
IC (TGI (total growth inhibition)) ([1]; Homo sapiens, 60 cell): 22400 nM
GI50 [1, 4]: 55 nM
GI50 (A549/ATCC): 41.5 nM
GI50 (MDA-MB-468): 21.6 nM
GI50 (M14): 24.8 nM
GI50 (MDA-MB-231/ATCC): 31.5 nM
GI50 (KM12): 23.1 nM
GI50 (OVCAR-8): 30.8 nM
GI50 (MCF-7): 32.4 nM
GI50 (ACHN): 62 nM
GI50 (K-562): 38.3 nM
GI50 (SK-MEL-2): 67.6 nM
GI50 (MOLT-4): 37.2 nM
GI50 (NCI-H332M): 51.1 nM
GI50 (UO-31): 74 nM
GI50 (SW-620): 39.4 nM
GI50 (LOX IMVI): 32.5 nM
GI50 (NCI/ADR-RES): 18.5 nM
GI50 (SK-MEL-28): > 100000 nM
GI50 (NCI-H552): 14.6 nM
GI50 (OVCAR-4): 40.7 nM
GI50 (SN12C): 62.9 nM
GI50 (SF295): 34.4 nM

C=CCC1C(=O)N(c2cc(OC)c(OC)c(OC)c2)C1c1ccc(OC)c(O)c1 (stereo not drawn) [10p, 4-(3-Hydroxy-4-methoxyphenyl)-1-(3,4,5-trimethoxyphenyl)-3-allylazetidin-2-one]
GI50 (DU-145): 26.6 nM
GI50 (NCI-H226): 56 nM
IC50 [2]: 27 nM
GI50 (EKVX): 76.4 nM
GI50 (SNB-75): 44.8 nM
GI50 (HCT-15): 36.7 nM
GI50 (HOP-92): 23.8 nM
GI50 (NCI-H460): 32 nM
GI50 (MDA-MB-435): 20.5 nM
GI50 [1, 3]: < 91.2 nM
CC50 ([1]; Homo sapiens, 60 cell): 93300 nM
IC (TGI (total growth inhibition)) ([1]; Homo sapiens, 60 cell): 35500 nM
GI50 [1, 4]: 61.7 nM
GI50 (A549/ATCC): 37.3 nM
GI50 (MDA-MB-468): 25 nM
GI50 (M14): 17.6 nM
GI50 (MDA-MB-231/ATCC): 24 nM
IC50 (MDA-MB-231/ATCC; MDA-MB-231, obtained from NCI, five concentrations 0.01–100 μM, read-out: Antiproliferative Activity IC50): 27.4 nM
GI50 (KM12): 22.4 nM
GI50 (OVCAR-8): 34 nM
GI50 (MCF-7): 35.3 nM
GI50 (ACHN): 53.2 nM
GI50 (K-562): 43.1 nM
GI50 (SK-MEL-2): 301 nM
GI50 (MOLT-4): 40.8 nM
GI50 (NCI-H332M): 51.2 nM
GI50 (UO-31): 85.8 nM
GI50 (SW-620): 42.2 nM
GI50 (LOX IMVI): 33.9 nM
GI50 (NCI/ADR-RES): 20.6 nM
GI50 (MALME-3M): 30.6 nM
GI50 (SK-MEL-28): 76200 nM
GI50 (NCI-H552): 15.1 nM
GI50 (OVCAR-4): 39.7 nM
GI50 (SN12C): 29.8 nM
GI50 (SF295): 29.1 nM
